Values after ≈ are worked out from the molar mass of the structure shown. Read-outs that look alike come from different tables or passages of the source.
Experiments:
[1] = test system: PK-15 (porcine kidney epithelial cells) and/or FFL (feline fetus lung cells); assay: cells; conditions: Sus scrofa
[2] = test system: boar sperm
[3] = test system: PK-15 (porcine kidney epithelial cells) and/or FFL (feline fetus lung cells)
[4] = test system: boar sperm; assay: cells
[5] = test system: Rat; conditions: po; cited from earlier work
[6] = test system: Fish; conditions: cited from earlier work
[7] = test system: differentiated PK-15 cells
[8] = test system: differentiated PK-15 cells; assay: cells; conditions: Sus scrofa, PK-15, read-out: Mitochondrial Toxicity 1d (EC50, acceleration of glycolysis and depolarization of mitochondria)
[9] = PK-15, 48 h, read-out: EC50 In Vitro ICP 2d
[10] = 72 h, read-out: EC50 Ex Vivo BSMI 1–3d

Compound	EC50 [1, 9] [µg/mL]	Ex Vivo BSMI 1–3d, toxic (+) / nontoxic (−), microbial metabolites ([2]; pig (boar))	In Vitro ICP 2d, toxic (+) / nontoxic (−), microbial metabolites [3]	EC50 [4, 10] [µg/mL]	In Vivo (toxicity to experimental animals), mycotoxins and fungal metabolites [5]	Toxicity In Vivo LD50 Rat p.o. [5]	EC50 Ex Vivo BSMI 1–3d [2]	EC50 In Vitro ICP 2d [3]	also measured
CC(C)=C[C@H]1C[C@H](C)[C@]2(CC[C@]3(C)C[C@H]4[C@H](C(=O)C[C@@]4(C)O)/C(C=O)=C\C[C@H]32)O1 [Ophiobolin, Ophiobolin A]	0.1 (≈ 0.25 µM)	(+) 0.3 (key: (+): For the microbial metabolites, EC50 < 5 µg mL^−1 and <10 µg mL^−1 were considered as toxic in the BSMI and ICP assays, respectively; nontoxic as (−))	(+) 0.1 (key: (+): For the microbial metabolites, EC50 < 5 µg mL^−1 and <10 µg mL^−1 were considered as toxic in the BSMI and ICP assays, respectively; nontoxic as (−))	0.3 (≈ 0.749 µM)	+ (key: LD50 rat p.o. <1000 mg kg ^–1 Classified as Toxic in vivo +.)	238 mg/kg			
Polyethylene glycol sorbitan mono oleate [Tween 80]						>25,000 mg kg^−1	(+) 10 μg mL^–1		Ex Vivo BSMI 1–3d, toxic (+) / nontoxic (−), xenobiotic chemicals [2]: (+) 10 (key: (+): For the xenobiotic chemicals, EC50 values < 10 µg mL^−1 and <20 µg mL^−1 were considered as toxic in the BSMI assay and in the ICP assay, respectively; nontoxic as (−)); Response in the BSMI assay [2]: weak positive response; In Vitro ICP 2d, toxic (+) / nontoxic (−), xenobiotic chemicals [3]: (−) 500; In Vivo (toxicity to experimental animals), xenobiotic chemicals [6]: −
CC1=C2C(=CO[C@H](C)[C@H]2C)C(O)=C(C(=O)O)C1=O [Citrinin]	10 (≈ 40 µM)	(−) 20	(+) 10 (key: (+): For the microbial metabolites, EC50 < 5 µg mL^−1 and <10 µg mL^−1 were considered as toxic in the BSMI and ICP assays, respectively; nontoxic as (−))	20 (≈ 79.9 µM)	+ (key: LD50 rat p.o. <1000 mg kg ^–1 Classified as Toxic in vivo +.)	105 mg/kg			EC50 ([1]; PK-15, read-out: EC50 In Vitro ICP, positive controls, mean of 10 or 11 measurements): 13 µg/mL (≈ 51.9 µM); EC50 ([4]; read-out: EC50 Ex Vivo BSMI, positive controls, mean of 10 or 11 measurements): ≥ 20 µg/mL
Polyethyleneglycol monalkyl ether [Genapol X 080]						>2000 mg/kg	(+) 3 μg mL^–1	(−) 30 μg mL^–1	Ex Vivo BSMI 1–3d, toxic (+) / nontoxic (−), xenobiotic chemicals [2]: (+) 3 (key: (+): For the xenobiotic chemicals, EC50 values < 10 µg mL^−1 and <20 µg mL^−1 were considered as toxic in the BSMI assay and in the ICP assay, respectively; nontoxic as (−)); In Vitro ICP 2d, toxic (+) / nontoxic (−), xenobiotic chemicals [3]: (−) 30; Mitochondrial Toxicity 1d (EC50, acceleration of glycolysis and depolarization of mitochondria) [7]: (+) 5 μg mL^–1; Mitochondrial toxicity after testing with somatic cells [7]: Mitochondrial toxicity was recorded; In Vivo (toxicity to experimental animals), xenobiotic chemicals [6]: + (key: LD50 Fish Inhaled <10 μg mL ^–1 = Toxic in vivo Marked as +.); Toxicity In Vivo LD50 Fish [6]: 5 mg/L
CC1(C)C=Cc2c(ccc3c2[N+]([O-])=C2C3=C[C@@]34NC(=O)[C@]5(CCCN5C3=O)C[C@H]4C2(C)C)O1 [Avrainvillamide]	0.2 (≈ 0.449 µM)	(+) 0.2 (key: (+): For the microbial metabolites, EC50 < 5 µg mL^−1 and <10 µg mL^−1 were considered as toxic in the BSMI and ICP assays, respectively; nontoxic as (−))	(+) 0.2 (key: (+): For the microbial metabolites, EC50 < 5 µg mL^−1 and <10 µg mL^−1 were considered as toxic in the BSMI and ICP assays, respectively; nontoxic as (−))	0.2 (≈ 0.449 µM)					
CC(C)[C@@H]1NC(=O)[C@H](C)OC(=O)[C@@H](C(C)C)NC(=O)[C@@H](C(C)C)OC(=O)[C@H](C(C)C)NC(=O)[C@H](C)OC(=O)[C@@H](C(C)C)NC(=O)[C@@H](C(C)C)OC(=O)[C@H](C(C)C)NC(=O)[C@H](C)OC(=O)[C@@H](C(C)C)NC(=O)[C@@H](C(C)C)OC1=O [Valinomycin]						4 mg/kg			
CCCCCCCCCCCCOS(=O)(=O)[O-].[Na+] [SDS, Sodium dodecyl sulfate]						1288 mg/kg	(+) 10 μg mL^–1	(−) 120 μg mL^–1	Ex Vivo BSMI 1–3d, toxic (+) / nontoxic (−), xenobiotic chemicals [2]: (+) 10 (key: (+): For the xenobiotic chemicals, EC50 values < 10 µg mL^−1 and <20 µg mL^−1 were considered as toxic in the BSMI assay and in the ICP assay, respectively; nontoxic as (−)); In Vitro ICP 2d, toxic (+) / nontoxic (−), xenobiotic chemicals [3]: (−) 120; In Vivo (toxicity to experimental animals), xenobiotic chemicals [6]: + (key: LD50 Fish Inhaled <10 μg mL ^–1 = Toxic in vivo Marked as +.); Toxicity In Vivo LD50 Fish [6]: 30 mg/L
O=c1cc(O)c1=O [Moniliformin]			(−) >20		+ (key: LD50 rat p.o. <1000 mg kg ^–1 Classified as Toxic in vivo +.)	50 mg/kg	(+) 2 μg mL^–1	(−) >20 μg mL^–1	Ex Vivo BSMI 1–3d, toxic (+) / nontoxic (−), microbial metabolites [2]: (+) 2 (key: (+): For the microbial metabolites, EC50 < 5 µg mL^−1 and <10 µg mL^−1 were considered as toxic in the BSMI and ICP assays, respectively; nontoxic as (−)); Mitochondrial Toxicity 1d (EC50, acceleration of glycolysis and depolarization of mitochondria) [7]: (+) 2 μg mL^–1
Cc1cc(O)c2c(c1)C(=O)c1cc(O)cc(O)c1C2=O [Emodin]	45 (≈ 167 µM)	(+) 4 (key: (+): For the microbial metabolites, EC50 < 5 µg mL^−1 and <10 µg mL^−1 were considered as toxic in the BSMI and ICP assays, respectively; nontoxic as (−))	(−) 45	4 (≈ 14.8 µM)		1000 mg/kg			EC50 [8]: 3 µg/mL (≈ 11.1 µM)
Polyethyleneglycol-p-is-octylphenyl ether [Triton X –100]						500 mg/kg	(+) 1 μg mL^–1	(−) 30 μg mL^–1	Ex Vivo BSMI 1–3d, toxic (+) / nontoxic (−), xenobiotic chemicals [2]: (+) 1 (key: (+): For the xenobiotic chemicals, EC50 values < 10 µg mL^−1 and <20 µg mL^−1 were considered as toxic in the BSMI assay and in the ICP assay, respectively; nontoxic as (−)); In Vitro ICP 2d, toxic (+) / nontoxic (−), xenobiotic chemicals [3]: (−) 30; In Vivo (toxicity to experimental animals), xenobiotic chemicals [6]: + (key: LD50 Fish Inhaled <10 μg mL ^–1 = Toxic in vivo Marked as +.); Toxicity In Vivo LD50 Fish [6]: 5 mg/L
CC1(C)C=Cc2c(ccc3c2[N+]([O-])=C2C(C)(C)[C@@H]4CC56CCCN5C(=O)[C@]4(NC6=O)[C@H]4N5C(=O)[C@@]67CCCN6C(=O)[C@@]56[C@H](c5c(n(O)c8c9c(ccc58)OC(C)(C)C=C9)C(C)(C)[C@@H]6C7)[C@]234)O1 [Stephacidin B]							(+) 0.3 μg mL^–1	(++) 0.3 μg mL^–1	Ex Vivo BSMI 1–3d, toxic (+) / nontoxic (−), microbial metabolites [2]: (+) 0.3 (key: (+): For the microbial metabolites, EC50 < 5 µg mL^−1 and <10 µg mL^−1 were considered as toxic in the BSMI and ICP assays, respectively; nontoxic as (−))
Acrebol			(−) >10				(+) 0.1 μg mL^–1	(−) >10 μg mL^–1	Ex Vivo BSMI 1–3d, toxic (+) / nontoxic (−), microbial metabolites [2]: (+) 0.1 (key: (+): For the microbial metabolites, EC50 < 5 µg mL^−1 and <10 µg mL^−1 were considered as toxic in the BSMI and ICP assays, respectively; nontoxic as (−)); Mitochondrial Toxicity 1d (EC50, acceleration of glycolysis and depolarization of mitochondria) [7]: (+) 0.1 μg mL^–1
C/C1=C\[C@@H](C)C/C=C/[C@H]2[C@@H]3O[C@]3(C)[C@@H](C)[C@H]3[C@H](Cc4c[nH]c5ccccc45)NC(=O)[C@]32C(=O)/C=C/C(=O)[C@@H]1O [Chaetoglobosin A]	3 (≈ 5.67 µM)	(+) <1 (key: (+): For the microbial metabolites, EC50 < 5 µg mL^−1 and <10 µg mL^−1 were considered as toxic in the BSMI and ICP assays, respectively; nontoxic as (−))	(+) 3 (key: (+): For the microbial metabolites, EC50 < 5 µg mL^−1 and <10 µg mL^−1 were considered as toxic in the BSMI and ICP assays, respectively; nontoxic as (−))	< 1	+ (key: LD50 rat p.o. <1000 mg kg ^–1 Classified as Toxic in vivo +.)	>400 mg/kg			
COc1cc2c(c3oc4cccc(O)c4c(=O)c13)[C@@H]1C=CO[C@@H]1O2 [Sterigmatocystin]		(−)>20	(+) 0.1 (key: (+): For the microbial metabolites, EC50 < 5 µg mL^−1 and <10 µg mL^−1 were considered as toxic in the BSMI and ICP assays, respectively; nontoxic as (−))		+ (key: LD50 rat p.o. <1000 mg kg ^–1 Classified as Toxic in vivo +.)		(−)>20 μg mL^–1	(+) 0.1 μg mL^–1	

Source: publication PMC10974995 (Pathogens, 2024)
